Experimental data published in ChEMBL document CHEMBL4251622, “Design, synthesis, and biological evaluation of polo-like kinase 1/eukaryotic elongation factor 2 kinase (PLK1/EEF2K) dual inhibitors for regulating breast cancer cells apoptosis and autophagy” (Eur J Med Chem, 2018).
The source made the active and inactive calls. The calls are words filed in the database; no cut-off is given here.

Tests used:
BT-474 = test: Cytotoxicity against human BT474 cells after 24 hrs by MTT assay; type: functional, cell-based
SK-BR-3 = test: Cytotoxicity against human SKBR3 cells after 24 hrs by MTT assay; type: functional, cell-based
[1] = target: Serine/threonine-protein kinase PLK1 (Homo sapiens, UniProt P53350); test: Inhibition of PLK1 autophosphorylation in human BT-483 cells at 5 to 10 uM by Western blot analysis; type: cell-based
BT-483 = test: Induction of autophagy in human BT-483 cells assessed as degradation of SQSTM1 protein at 5 to 10 uM by Western blot analysis; type: functional, cell-based
[2] = target: RAC-beta serine/threonine-protein kinase (Homo sapiens) (UniProt P31751); test: Inhibition of wild-type human partial length AKT2 expressed in bacterial expression system assessed as residual activity at 1 uM by Kinomescan method relative to control
[3] = target: ALK tyrosine kinase receptor (Homo sapiens) (UniProt Q9UM73); test: Inhibition of wild-type human partial length ALK (I1088 to E1409 residues) expressed in mammalian expression system assessed as residual activity at 1 uM by Kinomescan method relative to control
[4] = target: Bone morphogenetic protein receptor type-2 (Homo sapiens) (UniProt Q13873); test: Inhibition of wild-type human partial length BMPR2 (R179 to Q526 residues) expressed in mammalian expression system assessed as residual activity at 1 uM by Kinomescan method relative to control
[5] = target: Serine/threonine-protein kinase B-raf (Homo sapiens) (UniProt P15056); test: Inhibition of wild-type human partial length BRAF (S429 to E741 residues) expressed in mammalian expression system assessed as residual activity at 1 uM by Kinomescan method relative to control
[6] = system: Serine/threonine-protein kinase B-raf (Homo sapiens), P15056 [V600E]; test: Inhibition of human partial length BRAF V600E mutant (S429 to E741 residues) expressed in mammalian expression system assessed as residual activity at 1 uM by Kinomescan method relative to control
[7] = target: Serine/threonine-protein kinase DCLK1 (Homo sapiens) (UniProt O15075); test: Inhibition of wild-type human partial length DCAMKL1 (L270 to A662 residues) expressed in mammalian expression system assessed as residual activity at 1 uM by Kinomescan method relative to control
[8] = target: Glycogen synthase kinase-3 beta (Homo sapiens) (UniProt P49841); test: Inhibition of wild-type human full length GSK3B (M1 to T433 residues) expressed in mammalian expression system assessed as residual activity at 1 uM by Kinomescan method relative to control
[9] = target: Tyrosine-protein kinase JAK3 (Homo sapiens) (UniProt P52333); test: Inhibition of wild-type human partial length JAK3 JH1 catalytic domain (I781 to S1124 residues) expressed in mammalian expression system assessed as residual activity at 1 uM by Kinomescan method relative to control
[10] = target: Mitogen-activated protein kinase 9 (Homo sapiens) (UniProt P45984); test: Inhibition of wild-type human full length JNK2 (M1 to Q382 residues) expressed in mammalian expression system assessed as residual activity at 1 uM by Kinomescan method relative to control
[11] = target: MAP kinase-activated protein kinase 2 (Homo sapiens) (UniProt P49137); test: Inhibition of wild-type human partial length MAPKAPK2 (V48 to D345 residues) expressed in bacterial expression system assessed as residual activity at 1 uM by Kinomescan method relative to control
[12] = target: Serine/threonine-protein kinase PAK 1 (Homo sapiens) (UniProt Q13153); test: Inhibition of wild-type human partial length PAK1 (S149 to H545 residues) expressed in bacterial expression system assessed as residual activity at 1 uM by Kinomescan method relative to control
[13] = target: Serine/threonine-protein kinase pim-1 (Homo sapiens) (UniProt P11309); test: Inhibition of wild-type human partial length PIM1 (A15 to K313 residues) expressed in bacterial expression system assessed as residual activity at 1 uM by Kinomescan method relative to control
[14] = target: Serine/threonine-protein kinase pim-2 (Homo sapiens) (UniProt Q9P1W9); test: Inhibition of wild-type human partial length PIM2 (M1 to E291 residues) expressed in bacterial expression system assessed as residual activity at 1 uM by Kinomescan method relative to control
[15] = target: cAMP-dependent protein kinase catalytic subunit alpha (Homo sapiens) (UniProt P17612); test: Inhibition of wild-type human partial length PKAC-alpha (G10 to F351 residues) expressed in bacterial expression system assessed as residual activity at 1 uM by Kinomescan method relative to control
[16] = target: Ribosomal protein S6 kinase alpha-1 (Homo sapiens) (UniProt Q15418); test: Inhibition of wild-type human partial length N-terminal RSK1 Kinase domain 1 (M1 to E388 residues) expressed in bacterial expression system assessed as residual activity at 1 uM by Kinomescan method relative to control
[17] = target: NUAK family SNF1-like kinase 2 (Homo sapiens) (UniProt Q9H093); test: Inhibition of wild-type human partial length SNARK (P22 to A333 residues) expressed in mammalian expression system assessed as residual activity at 1 uM by Kinomescan method relative to control
[18] = target: Proto-oncogene tyrosine-protein kinase Src (Homo sapiens) (UniProt P12931); test: Inhibition of wild-type human partial length SRC (L240 to L536 residues) expressed in bacterial expression system assessed as residual activity at 1 uM by Kinomescan method relative to control
[19] = target: High affinity nerve growth factor receptor (Homo sapiens) (UniProt P04629); test: Inhibition of wild-type human partial length TRKA (G475 to G790 residues) expressed in mammalian expression system assessed as residual activity at 1 uM by Kinomescan method relative to control
[20] = target: Vascular endothelial growth factor receptor 2 (Homo sapiens) (UniProt P35968); test: Inhibition of wild-type human partial length VEGFR2 (R787 to P1253 residues) expressed in mammalian expression system assessed as residual activity at 1 uM by Kinomescan method relative to control
[21] = target: Serine/threonine-protein kinase 32C (Homo sapiens) (UniProt Q86UX6); test: Inhibition of wild-type human partial length YANK3 (M68 to G486 residues) expressed in bacterial expression system assessed as residual activity at 1 uM by Kinomescan method relative to control
[22] = target: Tyrosine-protein kinase ZAP-70 (Homo sapiens) (UniProt P43403); test: Inhibition of wild-type human partial length ZAP70 (D20 to G299 residues) expressed in mammalian expression system assessed as residual activity at 1 uM by Kinomescan method relative to control
[23] = target: Casein kinase I isoform delta (Homo sapiens) (UniProt P48730); test: Inhibition of wild-type human full length CSNK1D (M1 to K409 residues) expressed in bacterial expression system assessed as residual activity at 1 uM by Kinomescan method relative to control
[24] = target: Mitogen-activated protein kinase kinase kinase 9 (Homo sapiens) (UniProt P80192); test: Inhibition of wild-type human partial length MLK1 (V88 to W426 residues) expressed in bacterial expression system assessed as residual activity at 1 uM by Kinomescan method relative to control

Compound: CCNc1cc(-c2ccc(NC(=O)Nc3cccc(Cl)c3)cc2C(F)(F)F)ccn1
- Activity (BT-474): Active
- Activity (SK-BR-3): Active
- inhibition [1]: Active
- Activity (BT-483): Active
- Activity [2]: 80%
- Activity [3]: 88%
- Activity [4]: 94%
- Activity [5]: 93%
- Activity [6]: 88%
- Activity [7]: 98%
- Activity [8]: 80%
- Activity [9]: 98%
- Activity [10]: 93%
- Activity [11]: 95%
- Activity [12]: 70%
- Activity [13]: 66%
- Activity [14]: 88%
- Activity [15]: 79%
- Activity [16]: 64%
- Activity [17]: 69%
- Activity [18]: 93%
- Activity [19]: 84%
- Activity [20]: 60%
- Activity [21]: 73%
- Activity [22]: 71%
- Activity [23]: 86%
- Activity [24]: 67%
